These are literature values, as cited in patent publication US20050181044A1, “Compositions and methods for timed release of water-soluble nutritional supplements, green coffee extract” (priority 2004, published 2005).

As usually defined, the bioavailability is dose-corrected exposure relative to a reference, in per cent.

For this data set the following is noted: absorbed by the gastrointestinal tract, after first-pass metabolism in the liver.

`N[C@H]1C(O)O[C@H](CO)[C@@H](O)[C@@H]1O` (stereo partly shown) [Glucosamine]: the bioavailability is recorded as 26%.
